Measured values published in the supplement of paper PMC8617591.

What was measured:
[1] = system: Mycobacterium tuberculosis Erdman (autoluminescent); assay: Einf, fitted maximum growth inhibition (fraction); higher = stronger maximal inhibition
Procedure: (§1)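 DiaMOND dose responses (10 doses, 1.5- or 2-fold spacing, equipotent around IC90) of autoluminescent M. tuberculosis Erdman in 8 in vitro models. Read-out is OD600, or luminescence for the intracellular (J774) and dormancy models, background-subtracted and normalised to untreated wells. A 3-parameter Hill fit gives Einf and AUC25 (area to IC25 normalised by IC25); GRinf comes from a Hill fit of the Hafner normalised growth rate. Biological replicates passing QC are averaged. Single drugs only.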

[2] = system: Mycobacterium tuberculosis Erdman (autoluminescent); assay: AUC25, normalised area under dose response up to IC25 (fraction (0-1)); higher = more potent at low dose
Procedure: as §1

[3] = system: Mycobacterium tuberculosis Erdman (autoluminescent); assay: GRinf, maximum normalised growth rate inhibition (unitless (-1 to 1)); higher = less effect (negative = killing)
Procedure: as §1

[4] = system: Mycobacterium tuberculosis Erdman (autoluminescent); assay: FIC90 (Loewe) at 90% inhibition (log2); higher = more antagonistic
Procedure: (§2)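 DiaMOND equipotent two-drug combination dose responses against autoluminescent M. tuberculosis Erdman in 8 in vitro models. Read-out is OD600, or luminescence for the intracellular and dormancy models, normalised to untreated wells. Hill-fit Einf, AUC25 and GRinf are potency metrics; FIC50 and FIC90 are Loewe-additivity fractional inhibitory concentrations, given as log2 (negative = synergy). Replicates are averaged.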

[5] = system: Mycobacterium tuberculosis Erdman (autoluminescent); assay: FIC50 (Loewe) at 50% inhibition (log2); higher = more antagonistic
Procedure: as §2

[6] = system: Mycobacterium tuberculosis Erdman (autoluminescent); assay: Einf, fitted maximum growth inhibition of combination (fraction); higher = stronger maximal inhibition
Procedure: as §2

[7] = system: Mycobacterium tuberculosis Erdman (autoluminescent); assay: AUC25, normalised area under dose response up to IC25 (fraction (0-1)); higher = more potent at low dose; remark: listed apart in the source
Procedure: as §2

[8] = system: Mycobacterium tuberculosis Erdman (autoluminescent); assay: GRinf, maximum normalised growth rate inhibition (unitless (-1 to 1)); higher = less effect (negative = killing); remark: listed apart in the source
Procedure: as §2

O=[N+]([O-])c1cn2c(n1)OC[C@@H](OCc1ccc(OC(F)(F)F)cc1)C2 [pretomanid]
Details | AUC25, [2] | Einf, [1] | GRinf, [3]
in vitro model: acidic pH 5.7, time point: constant (~7 days, model-specific) | 0.109 | 0.891 | -0.472
in vitro model: acidic pH 5.7, time point: terminal (~4-5 doublings, model-specific) | 0.0605 | 0.983 | -0.294
in vitro model: intracellular J774, time point: constant = terminal | – | 1 | -0.539

Details | AUC25, [2] | Einf, [1] | GRinf, [3]
in vitro model: butyrate, time point: constant (~7 days, model-specific) | 0.0902 | 0.949 | -0.111
in vitro model: butyrate, time point: terminal (~4-5 doublings, model-specific) | 0.0573 | 0.98 | -0.114
in vitro model: cholesterol 0.05 mM, time point: constant (~7 days, model-specific) | 0.122 | 0.741 | -0.205
in vitro model: cholesterol 0.05 mM, time point: terminal (~4-5 doublings, model-specific) | 0.0841 | 0.927 | -0.0295
in vitro model: cholesterol-high 0.2 mM, time point: constant (~7 days, model-specific) | 0.0644 | 0.888 | -0.269
in vitro model: cholesterol-high 0.2 mM, time point: terminal (~4-5 doublings, model-specific) | 0.044 | 0.943 | -0.393
in vitro model: dormancy (butyrate + nitrate, low O2), time point: constant (~7 days, model-specific) | 0.0707 | 0.914 | 0.272
in vitro model: dormancy (butyrate + nitrate, low O2), time point: terminal (~4-5 doublings, model-specific) | 0.0458 | 0.994 | -0.0972
in vitro model: standard 7H9 glycerol, time point: constant = terminal | 0.0636 | 0.939 | -0.0451
in vitro model: valerate, time point: constant (~7 days, model-specific) | 0.136 | 0.948 | -0.0946
in vitro model: valerate, time point: terminal (~4-5 doublings, model-specific) | 0.0896 | 0.96 | -0.00421

NC(=O)c1cnccn1 [pyrazinamide]
Details | AUC25, [2] | Einf, [1] | GRinf, [3]
in vitro model: acidic pH 5.7, time point: constant (~7 days, model-specific) | 0.12 | 0.74 | -0.0384
in vitro model: acidic pH 5.7, time point: terminal (~4-5 doublings, model-specific) | 0.124 | 0.881 | 0.0463
in vitro model: intracellular J774, time point: constant = terminal | – | 0.977 | -0.393

Details | AUC25, [2] | Einf, [1] | GRinf, [3]
in vitro model: butyrate, time point: constant (~7 days, model-specific) | 0.135 | 0.921 | -1
in vitro model: butyrate, time point: terminal (~4-5 doublings, model-specific) | 0.098 | 0.954 | -1
in vitro model: cholesterol 0.05 mM, time point: constant (~7 days, model-specific) | 0.154 | 0.394 | 0.111
in vitro model: cholesterol 0.05 mM, time point: terminal (~4-5 doublings, model-specific) | 0.142 | 0.803 | 0.0744
in vitro model: cholesterol-high 0.2 mM, time point: constant (~7 days, model-specific) | 0.0952 | 0.765 | -0.0736
in vitro model: cholesterol-high 0.2 mM, time point: terminal (~4-5 doublings, model-specific) | 0.0753 | 0.959 | -0.64
in vitro model: dormancy (butyrate + nitrate, low O2), time point: constant (~7 days, model-specific) | 0.0813 | 0.939 | -0.934
in vitro model: standard 7H9 glycerol, time point: constant = terminal | 0.104 | 0.291 | 0.582
in vitro model: valerate, time point: constant (~7 days, model-specific) | 0.0917 | 0.8 | -0.597
in vitro model: valerate, time point: terminal (~4-5 doublings, model-specific) | 0.0645 | 0.916 | -0.749

NC(=O)c1cnccn1 [pyrazinamide] + CO[C@H]1/C=C/O[C@@]2(C)Oc3c(C)c(O)c4c(O)c(c(/C=N/N5CCN(C)CC5)c(O)c4c3C2=O)NC(=O)/C(C)=C\C=C\[C@H](C)[C@H](O)[C@@H](C)[C@@H](O)[C@@H](C)[C@H](OC(C)=O)[C@@H]1C [rifampicin]
Details | AUC25, [7] | Einf, [6] | FIC50, [5] | FIC90, [4] | GRinf, [8]
in vitro model: acidic pH 5.7, time point: constant (~7 days, model-specific) | 0.0773 | 0.932 | -0.484 | – | -0.451
in vitro model: acidic pH 5.7, time point: terminal (~4-5 doublings, model-specific) | 0.0598 | 0.992 | -0.21 | -1.3 | -0.278
in vitro model: intracellular J774, time point: constant = terminal | – | 0.989 | – | -0.135 | -0.472

Details | AUC25, [7] | Einf, [6] | FIC50, [5] | FIC90, [4] | GRinf, [8]
in vitro model: butyrate, time point: constant (~7 days, model-specific) | 0.121 | 0.839 | 0.347 | – | 0.188
in vitro model: butyrate, time point: terminal (~4-5 doublings, model-specific) | 0.118 | 0.915 | 0.398 | 2.41 | 0.216
in vitro model: cholesterol 0.05 mM, time point: constant (~7 days, model-specific) | 0.128 | 0.607 | – | – | 0.0467
in vitro model: cholesterol 0.05 mM, time point: terminal (~4-5 doublings, model-specific) | 0.101 | 0.887 | 0.59 | – | -0.0969
in vitro model: cholesterol-high 0.2 mM, time point: constant (~7 days, model-specific) | 0.0909 | 0.91 | 1.2 | – | -0.177
in vitro model: cholesterol-high 0.2 mM, time point: terminal (~4-5 doublings, model-specific) | 0.095 | 1 | 1.54 | 1.5 | -0.819
in vitro model: dormancy (butyrate + nitrate, low O2), time point: constant (~7 days, model-specific) | 0.105 | 0.9 | -0.268 | 0.25 | 0.249
in vitro model: dormancy (butyrate + nitrate, low O2), time point: terminal (~4-5 doublings, model-specific) | 0.0706 | 0.983 | -0.19 | 0.408 | -0.179
in vitro model: standard 7H9 glycerol, time point: constant = terminal | 0.0562 | 0.896 | -0.199 | – | 0.144
in vitro model: valerate, time point: constant (~7 days, model-specific) | 0.054 | 0.761 | 0.449 | – | 0.201
in vitro model: valerate, time point: terminal (~4-5 doublings, model-specific) | 0.0277 | 0.903 | 0.477 | 0.361 | 0.149
